From patent US20250213735A1, “NEUROPEPTIDE Y1 RECEPTOR (NPY1R) TARGETED THERAPEUTICS AND USES THEREOF” (Radionetics Oncology, Inc., priority 2023, published 2025)
pKi: −log10 of the molar value.

These molecules were tested against hNPY1R (Homo sapiens (Human), UniProt P25929) (assay: NPY1R binding assay (SK-N-MC membrane, [125I]-Peptide YY competition)). Conditions: crude SK-N-MC membranes endogenously expressing NPY1R; [125I]-Peptide YY (human) 0.05 nM; 120 min at room temperature; read-out: hNPY1R binding Ki.
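Further: bound radioligand separated by filtration over GF/C filter plates and counted, Ki obtained by non-linear regression.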

hNPY1R, sequence (P25929 whole entry): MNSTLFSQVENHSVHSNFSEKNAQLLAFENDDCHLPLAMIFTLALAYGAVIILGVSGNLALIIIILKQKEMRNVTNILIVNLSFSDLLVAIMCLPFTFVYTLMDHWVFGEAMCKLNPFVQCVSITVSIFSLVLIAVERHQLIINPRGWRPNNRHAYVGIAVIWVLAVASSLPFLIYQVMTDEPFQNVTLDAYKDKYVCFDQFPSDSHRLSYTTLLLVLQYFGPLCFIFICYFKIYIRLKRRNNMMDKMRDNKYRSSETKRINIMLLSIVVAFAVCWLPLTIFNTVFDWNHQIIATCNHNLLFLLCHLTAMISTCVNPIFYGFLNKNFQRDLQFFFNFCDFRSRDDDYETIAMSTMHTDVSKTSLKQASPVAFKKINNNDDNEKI

`CCC(=O)NCCNC(=O)/N=C(/N)NCCC[C@@H](NC(=O)[C@H](c1ccc(OCCCNC(=O)C[C@H](O)C[C@H](O)CCNC(=O)CCC(=O)NCCNC(=O)CN2CCN(CC(=O)O)CCN(CC(=O)O)CCN(CC(=O)O)CC2)cc1)N1Cc2ccccc2C1)C(=O)NCc1c(F)cc(O)cc1F` [compound 53, 2,2′,2″-(10-((14R,16R)-22-(4-((1S,4R,Z)-9-amino-4-((2,6-difluoro-4-hydroxybenzyl)carbamoyl)-1-(isoindolin-2-yl)-2,11,16-trioxo-3,8,10,12,15-pentaazaoctadec-9-en-1-yl)phenoxy)-14,16-dihydroxy-2,7,10,18-tetraoxo-3,6,11,19-tetraazadocosyl)-1,4,7,10-tetraazacyclododecane-1,4,7-triyl)triacetic acid] and `CCC(=O)NCCNC(=O)/N=C(/N)NCCC[C@@H](NC(=O)[C@H](c1ccc(OCCCNC(=O)CCCCCNC(=O)CN2CCN(CC(=O)O)CCN(CC(=O)O)CCN(CC(=O)O)CC2)cc1)N1Cc2ccccc2C1)C(=O)NCc1c(F)cc(O)cc1F` [compound 36, 2,2′,2″-(10-(2-((6-((3-(4-((1S,4R,Z)-9-amino-4-((2,6-difluoro-4-hydroxybenzyl)carbamoyl)-1-(isoindolin-2-yl)-2,11,16-trioxo-3,8,10,12,15-pentaazaoctadec-9-en-1-yl)phenoxy)propyl)amino)-6-oxohexyl)amino)-2-oxoethyl)-1,4,7,10-tetraazacyclododecane-1,4,7-triyl)triacetic acid] cannot be ordered by pKi: greater than 8.00 for the first, greater than 8.00 for the second.

Compared with `CCC(=O)NCCNC(=O)/N=C(/N)NCCC[C@@H](NC(=O)[C@@H](c1ccc(OCCCN)cc1)N1Cc2ccccc2C1)C(=O)NCc1ccc(O)cc1` [64B], `CCC(=O)NCCNC(=O)/N=C(/N)NCCC[C@@H](NC(=O)C(c1ccc(OCCCN)cc1)N1Cc2ccccc2C1)C(=O)NCc1c(F)cc(O)cc1F` (stereo in doubt) [compound 62, (R)-2-((S)-2-(4-(3-aminopropoxy)phenyl)-2-(isoindolin-2-yl)acetamido)-N-(2,6-difluoro-4-hydroxybenzyl)-5-((Z)-2-((2-propionamidoethyl)carbamoyl)guanidino)pentanamide] is higher in pKi: 7.00 to 8.00 for the first, greater than 8.00 for the second.

`CCC(=O)NCCNC(=O)/N=C(/N)NCCC[C@@H](NC(=O)[C@H](c1ccc(OCCCNC(=O)[C@@H](CC(N)=O)NC(=O)[C@@H](CO)NC(=O)CCNC(=O)CN2CCN(CC(=O)O)CCN(CC(=O)O)CCN(CC(=O)O)CC2)cc1)N1Cc2ccccc2C1)C(=O)NCc1c(F)cc(O)cc1F` [compound 51, 2,2′,2″-(10-((8R,11R)-11-(2-amino-2-oxoethyl)-16-(4-((1S,4R,Z)-9-amino-4-((2,6-difluoro-4-hydroxybenzyl)carbamoyl)-1-(isoindolin-2-yl)-2,11,16-trioxo-3,8,10,12,15-pentaazaoctadec-9-en-1-yl)phenoxy)-8-(hydroxymethyl)-2,6,9,12-tetraoxo-3,7,10,13-tetraazahexadecyl)-1,4,7,10-tetraazacyclododecane-1,4,7-triyl)triacetic acid] and `CCC(=O)NCCNC(=O)/N=C(/N)NCCC[C@@H](NC(=O)[C@H](c1ccc(OCCCNC(=O)NCCONC(=O)CN2CCN(CC(=O)O)CCN(CC(=O)O)CCN(CC(=O)O)CC2)cc1)N1Cc2ccccc2C1)C(=O)NCc1c(F)cc(O)cc1F` [compound 45, 2,2′,2″-(10-(12-(4-((1S,4R,Z)-9-amino-4-((2,6-difluoro-4-hydroxybenzyl)carbamoyl)-1-(isoindolin-2-yl)-2,11,16-trioxo-3,8,10,12,15-pentaazaoctadec-9-en-1-yl)phenoxy)-2,8-dioxo-4-oxa-3,7,9-triazadodecyl)-1,4,7,10-tetraazacyclododecane-1,4,7-triyl)triacetic acid] cannot be ordered by pKi: greater than 8.00 for the first, greater than 8.00 for the second.

`CCC(=O)NCCNC(=O)/N=C(/N)NCCC[C@@H](NC(=O)[C@H](c1cccc(NC(=O)CCCNc2c(NCCCCCCNC(=O)CN3CCN(CC(=O)O)CCN(CC(=O)O)CCN(CC(=O)O)CC3)c(=O)c2=O)c1)N1Cc2ccccc2C1)C(=O)NCc1c(F)cc(O)cc1F` (single isomer, unassigned) [31A] and `CCC(=O)NCCNC(=O)/N=C(/N)NCCC[C@@H](NC(=O)[C@H](c1ccc(OCCCN(C)CCCCCNC(=O)CN2CCN(CC(=O)O)CCN(CC(=O)O)CCN(CC(=O)O)CC2)cc1)N1Cc2ccccc2C1)C(=O)NCc1c(F)cc(O)cc1F` [compound 56, 2,2′,2″-(10-(2-((5-((3-(4-((1S,4R,Z)-9-amino-4-((2,6-difluoro-4-hydroxybenzyl)carbamoyl)-1-(isoindolin-2-yl)-2,11,16-trioxo-3,8,10,12,15-pentaazaoctadec-9-en-1-yl)phenoxy)propyl)(methyl)amino)pentyl)amino)-2-oxoethyl)-1,4,7,10-tetraazacyclododecane-1,4,7-triyl)triacetic acid] cannot be ordered by pKi: greater than 8.00 for the first, greater than 8.00 for the second.

`CCC(=O)NCCNC(=O)/N=C(/N)NCCC[C@@H](NC(=O)[C@H](c1ccccc1)N1Cc2cccc(NCCCNC(=O)C[C@H](O)C[C@H](O)CCNC(=O)CN3CCN(CC(=O)O)CCN(CC(=O)O)CCN(CC(=O)O)CC3)c2C1)C(=O)NCc1c(F)cc(O)cc1F` [compound 41, 2,2′,2″-(10-(2-(((3R,5R)-7-((3-((2-((1S,4R,Z)-9-amino-4-((2,6-difluoro-4-hydroxybenzyl)carbamoyl)-2,11,16-trioxo-1-phenyl-3,8,10,12,15-pentaazaoctadec-9-en-1-yl)isoindolin-4-yl)amino)propyl)amino)-3,5-dihydroxy-7-oxoheptyl)amino)-2-oxoethyl)-1,4,7,10-tetraazacyclododecane-1,4,7-triyl)triacetic acid] and `CCC(=O)NCCNC(=O)/N=C(/N)NCCC[C@@H](NC(=O)[C@H](c1cccc(NCCCNC(=O)NOCCNC(=O)CN2CCN(CC(=O)O)CCN(CC(=O)O)CCN(CC(=O)O)CC2)c1)N1Cc2ccccc2C1)C(=O)NCc1ccc(O)cc1` [compound 22, 2,2′,2″-(10-(12-((3-((1S,4R,Z)-9-amino-4-((4-hydroxybenzyl)carbamoyl)-1-(isoindolin-2-yl)-2,11,16-trioxo-3,8,10,12,15-pentaazaoctadec-9-en-1-yl)phenyl)amino)-2,8-dioxo-6-oxa-3,7,9-triazadodecyl)-1,4,7,10-tetraazacyclododecane-1,4,7-triyl)triacetic acid] cannot be ordered by pKi: greater than 8.00 for the first, greater than 8.00 for the second.

`CCC(=O)NCCNC(=O)/N=C(/N)NCCC[C@@H](NC(=O)[C@H](c1ccc(OCCCN2CCN(C(=O)CCNC(=O)CN3CCN(CC(=O)O)CCN(CC(=O)O)CCN(CC(=O)O)CC3)CC2)cc1)N1Cc2ccccc2C1)C(=O)NCc1c(F)cc(O)cc1F` [compound 4, 2,2′,2″-(10-(2-((3-(4-(3-(4-((1S,4R,Z)-9-amino-4-((2,6-difluoro-4-hydroxybenzyl)carbamoyl)-1-(isoindolin-2-yl)-2,11,16-trioxo-3,8,10,12,15-pentaazaoctadec-9-en-1-yl)phenoxy)propyl)piperazin-1-yl)-3-oxopropyl)amino)-2-oxoethyl)-1,4,7,10-tetraazacyclododecane-1,4,7-triyl)triacetic acid-2,2,2-trifluoroacetic acid (1/1)] and `CCC(=O)NCCNC(=O)/N=C(/N)NCCC[C@@H](NC(=O)[C@H](c1ccc(OCCNC(=O)CCCCCNC(=O)CN2CCN(CC(=O)O)CCN(CC(=O)O)CCN(CC(=O)O)CC2)cc1)N1Cc2ccccc2C1)C(=O)NCc1ccc(O)cc1` [compound 58, 2,2′,2″-(10-(2-((6-((2-(4-((1S,4R,Z)-9-amino-4-((4-hydroxybenzyl)carbamoyl)-1-(isoindolin-2-yl)-2,11,16-trioxo-3,8,10,12,15-pentaazaoctadec-9-en-1-yl)phenoxy)ethyl)amino)-6-oxohexyl)amino)-2-oxoethyl)-1,4,7,10-tetraazacyclododecane-1,4,7-triyl)triacetic acid] cannot be ordered by pKi: greater than 8.00 for the first, greater than 8.00 for the second.

`CCC(=O)NCCNC(=O)/N=C(/N)NCCC[C@@H](NC(=O)[C@H](c1ccccc1)N1Cc2ccccc2C1)C(=O)NCc1c(F)cc(O)cc1F` [61A, (R)—N-(2,6-difluoro-4-hydroxybenzyl)-2-((S)-2-(isoindolin-2-yl)-2-phenylacetamido)-5-((Z)-2-((2-propionamidoethyl)carbamoyl)guanidino)pentanamide] and `CCNC(=O)/N=C(/N)NCCC[C@@H](NC(=O)[C@H](c1cccc(NCCCN)c1)N1Cc2ccccc2C1)C(=O)NCc1c(F)cc(O)cc1F` [66A, (R)-2-((S)-2-(3-((3-aminopropyl)amino)phenyl)-2-(isoindolin-2-yl)acetamido)-N-(2,6-difluoro-4-hydroxybenzyl)-5-((Z)-2-(ethylcarbamoyl)guanidino)pentanamide] cannot be ordered by pKi: greater than 8.00 for the first, greater than 8.00 for the second.

First: N=C(N)NCCC[C@@H](NC(=O)C(c1ccccc1)N1CCC2(CCC2)CC1)C(=O)NCc1ccc(O)cc1 (stereo partly drawn) [compound 89, (2R)-5-guanidino-N-(4-hydroxybenzyl)-2-(2-phenyl-2-(7-azaspiro[3.5]nonan-7-yl)acetamido)pentanamide]
Second: CC1(C)C2CN([C@@H](C(=O)N[C@H](CCCNC(=N)N)C(=O)NCc3ccc(O)cc3)c3ccccc3)CC21 (stereo partly drawn) [88B, (2R)-2-((2R)-2-(6,6-dimethyl-3-azabicyclo[3.1.0]hexan-3-yl)-2-phenylacetamido)-5-guanidino-N-(4-hydroxybenzyl)pentanamide]
The pKi of the first is higher: 7.00 to 8.00 for the first, less than 6.00 for the second.

First: N=C(N)NCCC[C@@H](NC(=O)C(c1ccccc1)N1CCC(c2ccccc2)CC1)C(=O)NCc1ccc(O)cc1 (stereo partly drawn) [compound 86, (2R)-5-guanidino-N-(4-hydroxybenzyl)-2-(2-phenyl-2-(4-phenylpiperidin-1-yl)acetamido)pentanamide]
Second: CCC(=O)NCCNC(=O)/N=C(/N)NCCC[C@@H](NC(=O)[C@H](c1ccc(OCCCNC(=O)CCOCCNC(=O)c2ccc(CNC(=O)CN3CCN(CC(=O)O)CCN(CC(=O)O)CCN(CC(=O)O)CC3)cc2)cc1)N1Cc2ccccc2C1)C(=O)NCc1ccc(O)cc1 [compound 17, 2,2′,2″-(10-(2-((4-((2-(3-((3-(4-((1S,4R,Z)-9-amino-4-((4-hydroxybenzyl)carbamoyl)-1-(isoindolin-2-yl)-2,11,16-trioxo-3,8,10,12,15-pentaazaoctadec-9-en-1-yl)phenoxy)propyl)amino)-3-oxopropoxy)ethyl)carbamoyl)benzyl)amino)-2-oxoethyl)-1,4,7,10-tetraazacyclododecane-1,4,7-triyl)triacetic acid]
The pKi of the first is lower: 6.00 to 7.00 for the first, greater than 8.00 for the second.
